Assay results from patent US6593352B2, “Substituted anthranilic acids, their use as a medicament or diagnostic, and medicament comprising them, and a pharmaceutical combination preparation containing a sodium/hydrogen exchange (NHE) blocker” (Aventis Pharma Deutschland GmbH, priority 2000, dated 2003).

What follows are compounds tested against T1, heart form of human NBC1 (Homo sapiens, UniProt Q9Y6R1) (assay: NBC activity measurement (pHi recovery after acid load, BCECF, FLIPR)). Conditions: residual NBC activity at inhibitor concentration of 10 μM; CHO K1 cells transfected with heart form of human NBC1; NHE and NCBE blocked; duplicate determinations.
T1 construct: expressed in transfected cells
T1 sequence (Q9Y6R1 1-1079): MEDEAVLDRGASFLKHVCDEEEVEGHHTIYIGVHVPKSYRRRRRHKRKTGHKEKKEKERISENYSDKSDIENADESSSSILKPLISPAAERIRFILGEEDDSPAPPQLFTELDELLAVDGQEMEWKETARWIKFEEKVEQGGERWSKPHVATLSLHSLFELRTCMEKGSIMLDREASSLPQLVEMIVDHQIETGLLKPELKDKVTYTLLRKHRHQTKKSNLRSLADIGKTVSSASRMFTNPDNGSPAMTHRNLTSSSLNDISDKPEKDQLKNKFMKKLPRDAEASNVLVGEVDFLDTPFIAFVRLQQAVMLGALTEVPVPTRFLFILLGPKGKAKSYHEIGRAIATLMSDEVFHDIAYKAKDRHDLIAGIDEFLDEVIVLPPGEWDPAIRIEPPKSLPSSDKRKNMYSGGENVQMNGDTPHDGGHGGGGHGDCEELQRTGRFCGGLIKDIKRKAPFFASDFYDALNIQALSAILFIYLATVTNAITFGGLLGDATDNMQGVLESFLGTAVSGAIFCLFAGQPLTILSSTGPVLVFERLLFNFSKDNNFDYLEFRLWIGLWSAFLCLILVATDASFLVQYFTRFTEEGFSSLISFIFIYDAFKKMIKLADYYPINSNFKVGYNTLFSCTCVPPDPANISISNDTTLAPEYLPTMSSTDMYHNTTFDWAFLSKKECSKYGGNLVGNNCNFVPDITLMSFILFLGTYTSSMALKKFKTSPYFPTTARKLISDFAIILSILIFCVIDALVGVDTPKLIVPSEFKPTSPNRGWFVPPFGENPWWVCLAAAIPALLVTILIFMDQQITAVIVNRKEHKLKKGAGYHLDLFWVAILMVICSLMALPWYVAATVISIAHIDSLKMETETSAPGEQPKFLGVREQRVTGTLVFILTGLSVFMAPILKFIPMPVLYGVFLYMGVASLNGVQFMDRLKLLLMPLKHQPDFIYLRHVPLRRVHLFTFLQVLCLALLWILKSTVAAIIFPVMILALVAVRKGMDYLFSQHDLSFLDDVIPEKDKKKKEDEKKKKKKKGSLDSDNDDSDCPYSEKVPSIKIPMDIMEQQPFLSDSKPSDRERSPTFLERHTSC
Type: cell-based
Source text: Firstly, the heart form of human NBC1 was cloned by RT-PCR. After confirmation of the sequence, the corresponding cDNAs were cloned into the vector pcDNA3.1+, which contains the neo gene as a selection marker for eukaryotic cells. For the amplification of the human heart form of NBC1, human heart mRNA (Clontech, Palo Alto, Calif., USA) was amplified using primers which cover the area in which the heart form differs from the kidney form. The heart form in this case differs only at the 5′ end of the coding sequence. The area coding for the first 41 amino acids of the kidney form is replaced in the heart form by an area coding for 85 amino acids (positions 118-370 from Abukadze et al., J. Biol. Chem. 273,17689-17695 (1998) or positions 45-294 from Choi et al., Am. J. Physiol. Cell Physiol. 276, C576-C584 (1999) replace positions 150-270 from Burnham et al. (see above.), J. Biol. Chem. 272, 19 111-19 114 (1997). The product of the PCR reaction was first cloned into the vector pCR2.1 and, after verification of the sequence, cloned into the cDNA of the kidney form of NBC1 by means of cleavage sites introduced by means of the PCR reaction. The construct obtained was checked for correct incorporation of the human heart NBC1-cDNA by sequencing. The plasmids obtained for the heart form of human NBC1 were transfected by means of the LipofectAmine™ reagent of the company LifeTechnologies (Gaithersburg, Md., USA) into the cell line CHO K1 (ovary cells of the Chinese hamster), which has no measurable NBC activity. After selection for transfected cells by means of growth in G418-containing medium (only cells which have obtained a neo gene by transfection can survive under these conditions), individual cells were isolated and cultured. Using the test described below, cell clones were identified in FLIPR which have a clear NBC activity. The best cell lines were used for the further tests and, to avoid a loss of the transfected sequence, cultured in G418-containing medium under continuous selection pressure.
For the determination of the inhibitory activity of the active compounds on the heart form of human NBC 1, a test was constructed which represents a further development of the assay constructed for the testing of inhibitors of NCBE (Na^+dependent Cl^−/HCO3− exchanger) (EP 0 903 339) based on the acid load method (Sardet et al., Cell 56, 271-280 (1989); Faber et al., Cell. Physiol. Biochem. 6, 39-49 (1996). In this test, the recovery of the intracellular pH (pHi) after prior acidification is determined under conditions in which the NBC is active, the other pHiregulating systems of the CHO cells such as NHE (Na^+/H^+ exchanger) and NCBE (Na^+-dependent Cl^−/HCO3− exchanger) are blocked, however, by specific inhibitors. In this way, it is ensured that the recovery of the intracellular pH observed is based on the activity of NBC1.
The transfected cells were inoculated into 96 well microtiter plates in a density of about 15,000 cells/well in 200 μl of growth medium and incubated overnight at 37° C. in a CO2 incubator. The intracellular pH of the transfected cells was determined using the pH-sensitive fluorescent dye BCECF (Molecular Probes (Eugene, Oreg., USA), the precursor BCECF-AM is employed). The cells were first loaded with BCECF-AM. The growth medium of the cells inoculated on the day before was manually removed, since the fetal calf serum present in the medium could interfere with the BCECF staining. For staining, 100 μl of NH4Cl stain buffer (20 mM NH4Cl, 115 mM NaCl, 1 mM MgSO4, 1 mM CaCl2, 5 mM KCl, 20 mMHEPES, 5 mM glucose; pH adjusted to 7.4 using 1 M NaOH) was added to the cells of each well, which contains 5 μM BCECF-AM. The cells were incubated with the stain solution at 37° C. in a CO2 incubator for 20 minutes. […]

| residual activity [%] at 10 μM [%] | Compound |
| --- | --- |
| 78 | CC(C)c1cc(NCCCCc2ccccc2)c(C(=O)O)cc1S(=O)(=O)NCc1ccc(F)c(Cl)c1 [Example 5, 4-isopropyl-5-(3-chloro-4-fluorobenzylsulfamoyl)-2-phenylbutylaminobenzoic acid] |
| 89 | 4-Chloro-5-(cyclohexylmethylsulfamoyl)-2-phenylbutylaminobenzoic acid [Example 20] |
| 77 | 4-Chloro-5-(phenylbutylsulfamoyl)-2-phenylbutylaminobenzoic Acid [Example 19] |
| 88 | O=C(O)c1cc(S(=O)(=O)NCc2ccc(F)c(Cl)c2)ccc1NCCCCc1ccccc1 [Example 3, 5-(3-Chloro-4-fluorobenzylsulfamoyl)-2-phenylbutylaminobenzoic acid] |
| 91 | O=C(O)c1cc(S(=O)(=O)NCCc2ccc(Cl)cc2)c(Cl)cc1NCCCCc1ccccc1 [Example 16, 4-Chloro-5-[2-(4-chlorophenyl)ethylsulfamoyl]-2-phenylbutylaminobenzoic acid] |
| 79 | 4-Chloro-5-[(5-methylfuran-2-ylmethyl)sulfamoyl]-2-phenylbutylaminobenzoic acid [Example 15] |
| 95 | 4-(4-Methylphenyl)-5-(3-chloro-4-fluorobenzylsulfamoyl)-2-phenylbutylaminobenzoic acid [Example 7] |

The remaining lines, values behind:

| Compound | residual activity [%] at 10 μM [%] |
| --- | --- |
| CCCc1cc(NCCCCc2ccccc2)c(C(=O)O)cc1S(=O)(=O)NCc1ccc(F)c(Cl)c1 [Example 6, 4-n-Propyl-5-(3-chloro-4-fluorobenzylsulfamoyl)-2-phenylbutylaminobenzoic acid] | 69 |
| NS(=O)(=O)c1ccc(CNS(=O)(=O)c2cc(C(=O)O)c(NCCCCc3ccccc3)cc2Cl)cc1 [Example 11, 4-Chloro-2-phenylbutylamino-5-(4-sulfamoylbenzylsulfamoyl)benzoic acid] | 81 |
| O=C(O)c1cc(S(=O)(=O)NCc2ccccn2)c(Cl)cc1NCCCCc1ccccc1 [Example 9, 4-Chloro-2-phenylbutylamino-5-[(pyridin-2-ylmethyl)sulfamoyl]benzoic acid] | 89 |
| O=C(O)c1cc(S(=O)(=O)NCc2ccc(F)c(Cl)c2)c(Cl)cc1NCCCCc1ccccc1 [Example 1, 4-Chloro-5-(3-chloro-4-fluorobenzylsulfamoyl)-2-phenylbutylaminobenzoic acid] | 46 |
| O=C(O)c1cc(S(=O)(=O)NCCc2cccs2)c(Cl)cc1NCCCCc1ccccc1 [Example 17, 4-Chloro-2-phenylbutylamino-5-(2-thiophen-2-ylethylsulfamoyl)benzoic acid] | 95 |
| O=C(O)c1cc(S(=O)(=O)NCc2cccc(Cl)c2)c(Cl)cc1NCCCCc1ccccc1 [Example 10, 4-Chloro-2-phenylbutylamino-5-(3-chlorobenzylsulfamoyl)benzoic Acid] | 75 |
| O=C(O)c1cc(S(=O)(=O)NCc2ccncc2)c(Cl)cc1NCCCCc1ccccc1 [Example 8, 4-Chloro-2-phenylbutylamino-5-[(pyridin-4-ylmethyl)sulfamoyl]benzoic acid] | 89 |
| CC(C)CNS(=O)(=O)c1cc(C(=O)O)c(NCCCCc2ccccc2)cc1Cl [Example 21, 4-Chloro-5-(isobutylsulfamoyl)-2-phenylbutylaminobenzoic acid] | 94 |
| Cc1cc(NCCCCc2ccccc2)c(C(=O)O)cc1S(=O)(=O)NCc1ccc(F)c(Cl)c1 [Example 4, 4-Methyl-5-(3-chloro-4-fluorobenzylsulfamoyl)-2-phenylbutylaminobenzoic acid] | 54 |
| O=C(O)c1cc(S(=O)(=O)NCc2cccc(Cl)c2Cl)c(Cl)cc1NCCCCc1ccccc1 [Example 12, 4-Chloro-2-phenylbutylamino-5-(2,3-dichlorobenzylsulfamoyl)benzoic acid] | 37 |
| CCc1ccc(NS(=O)(=O)c2cc(C(=O)O)c(NCCCCc3ccccc3)cc2Cl)cc1 [Example 18, 4-Chloro-5-(4-ethylphenylsulfamoyl)-2-phenylbutylaminobenzoic acid] | 79 |
| O=C(O)c1cc(S(=O)(=O)NCc2ccc(F)c(Cl)c2)c(Br)cc1NCCCCc1ccccc1 [Example 2, 4-Bromo-5-(3-chloro-4-fluorobenzylsulfamoyl)-2-phenylbutylaminobenzoic acid] | 56 |
| O=C(O)c1cc(S(=O)(=O)NCc2ccc(Cl)cc2Cl)c(Cl)cc1NCCCCc1ccccc1 [Example 13, 4-Chloro-2-phenylbutylamino-5-(2,4-dichlorobenzylsulfamoyl)benzoic acid] | 60 |
| O=C(O)c1cc(S(=O)(=O)NCc2c(F)cccc2Cl)c(Cl)cc1NCCCCc1ccccc1 [Example 14, 4-Chloro-2-phenylbutylamino-5-(2-chloro-6-fluorobenzylsulfamoyl)benzoic acid] | 87 |

These compounds were tested on isolated beating rat heart (assay: ischemia/reperfusion model (isolated beating rat heart)). Conditions: combination of the NBC blocker with the NHE inhibitor cariporide mesilate.

| Compound | cardioprotective action |
| --- | --- |
| O=C(O)c1cc(S(=O)(=O)NCc2ccc(F)c(Cl)c2)c(Cl)cc1NCCCCc1ccccc1 [Example 1, 4-Chloro-5-(3-chloro-4-fluorobenzylsulfamoyl)-2-phenylbutylaminobenzoic acid] | greater than additive cardioprotective action |
